Assay results: patent US20260347364A1, “PYRAZOLO[4,3-F]QUINAZOLINE DERIVATIVES AS MODULATORS OF G12D MUTANT KRAS USEFUL FOR THE TREATMENT OF CANCER” (JAZZ PHARMACEUTICALS IRELAND LTD., priority 2023, published 2026)

Tests used:
KRAS WT = biological target: T1, KRAS WT (Homo sapiens, UniProt P01116); test: HTRF nucleotide exchange assay, KRAS WT; assay type: biochemical; conditions: HTRF nucleotide exchange assay (NEA), class symbols
T1 construct: aa1-188 KRAS WT

KRAS G12S = biological target: T2, KRAS G12S (Homo sapiens, UniProt P01116, G12S); test: HTRF nucleotide exchange assay, KRAS G12S; assay type: biochemical; conditions: HTRF nucleotide exchange assay (NEA), class symbols
T2 construct: 4 nM KRAS; aa1-188 containing the G12V, G12C, G12A or G12S amino acid substitution
T2 sequence (P01116 1-188 isoform P01116-2 G12S): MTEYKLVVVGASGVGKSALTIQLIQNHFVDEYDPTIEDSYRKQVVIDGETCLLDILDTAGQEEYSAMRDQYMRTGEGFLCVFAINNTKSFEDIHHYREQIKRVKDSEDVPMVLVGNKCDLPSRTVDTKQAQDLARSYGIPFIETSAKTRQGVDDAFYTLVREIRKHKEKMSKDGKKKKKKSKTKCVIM
Experimental: (§1) HTRF Nucleotide Exchange Assay Method
(§2) The capacity of compounds to bind KRAS G12D, other KRAS mutants and wildtype RAS isoforms was quantified using a HTRF nucleotide exchange assay. Recombinant human RAS protein (2 nM; aa1-188 KRAS WT, HRAS WT, NRAS WT, or KRAS containing the G12D, G13D or Q61H amino acid substitutions, or 4 nM KRAS; aa1-188 containing the G12V, G12C, G12A or G12S amino acid substitution, an N-terminal 6× His-tag and leader sequence), and 2 nM Europium-labeled anti-6× His antibody were mixed in assay buffer (10 mM HEPES pH 7.3, 150 mM NaCl, 5 mM MgCl2, 0.05% BSA, 0.0025% NP-40 and 100 mM KF) with various concentrations of compound in a 384-well plate and a volume of 5 μL. After a 60-minute incubation at room temperature, 5 μl of 200 nM EDA-GTP-DY647P1 (diluted in assay buffer) was added to the plate. Following 30-minute incubation at room temperature, time-resolved fluorescence was measured on a PerkinElmer Envision plate reader. DMSO (0.3%) and unlabeled GDP (1 μM) or equivalent tool compound were used to generate the Max and Min assay signals, respectively. Data was analysed using a four-parameter logistic model to calculate IC50 values, with at least two independent replicates were performed for each compound. […]

KRAS G12D = biological target: T3, KRAS G12D (Homo sapiens, UniProt P01116, G12D); test: HTRF nucleotide exchange assay, KRAS G12D; assay type: biochemical; conditions: HTRF nucleotide exchange assay (NEA), class symbols
T3 construct: aa1-188 KRAS WT, HRAS WT, NRAS WT, or KRAS containing the G12D
T3 sequence (P01116 1-188 isoform P01116-2 G12D): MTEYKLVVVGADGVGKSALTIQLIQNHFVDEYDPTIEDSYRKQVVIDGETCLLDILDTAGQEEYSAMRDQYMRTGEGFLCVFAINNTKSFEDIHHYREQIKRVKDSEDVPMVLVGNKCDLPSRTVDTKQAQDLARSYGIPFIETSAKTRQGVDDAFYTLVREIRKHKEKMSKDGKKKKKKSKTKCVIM

KRAS G12A = biological target: T4, KRAS G12A (Homo sapiens, UniProt P01116, G12A); test: HTRF nucleotide exchange assay, KRAS G12A; assay type: biochemical; conditions: HTRF nucleotide exchange assay (NEA), class symbols
T4 construct: 4 nM KRAS; aa1-188 containing the G12V, G12C, G12A or G12S amino acid substitution
T4 sequence (P01116 1-188 isoform P01116-2 G12A): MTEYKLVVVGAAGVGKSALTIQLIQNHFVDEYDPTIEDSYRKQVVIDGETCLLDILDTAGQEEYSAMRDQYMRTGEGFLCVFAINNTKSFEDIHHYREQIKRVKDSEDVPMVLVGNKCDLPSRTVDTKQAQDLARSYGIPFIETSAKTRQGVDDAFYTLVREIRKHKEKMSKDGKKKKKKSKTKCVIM
Experimental: as §1, §2

KRAS G12V = biological target: T5, KRAS G12V (Homo sapiens, UniProt P01116, G12V); test: HTRF nucleotide exchange assay, KRAS G12V; assay type: biochemical; conditions: HTRF nucleotide exchange assay (NEA), class symbols
T5 construct: 4 nM KRAS; aa1-188 containing the G12V, G12C, G12A or G12S amino acid substitution
T5 sequence (P01116 1-188 isoform P01116-2 G12V): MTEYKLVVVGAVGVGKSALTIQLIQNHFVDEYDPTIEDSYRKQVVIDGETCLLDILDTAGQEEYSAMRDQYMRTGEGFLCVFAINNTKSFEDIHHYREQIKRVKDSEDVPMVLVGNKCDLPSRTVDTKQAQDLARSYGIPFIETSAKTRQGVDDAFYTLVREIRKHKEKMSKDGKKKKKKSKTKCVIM
Experimental: as §1
The capacity of compounds to bind KRAS G12D, other KRAS mutants and wildtype RAS isoforms was quantified using a HTRF nucleotide exchange assay. Recombinant human RAS protein (2 nM; aa1-188 KRAS WT, HRAS WT, NRAS WT, or KRAS containing the G12D, G13D or Q61H amino acid substitutions, or 4 nM KRAS; aa1-188 containing the G12V, G12C, G12A or G12S amino acid substitution, an N-terminal 6× His-tag and leader sequence), and 2 nM Europium-labeled anti-6× His antibody were mixed in assay buffer (10 mM HEPES pH 7.3, 150 mM NaCl, 5 mM MgCl2, 0.05% BSA, 0.0025% NP-40 and 100 mM KF) with various concentrations of compound in a 384-well plate and a volume of 5 μL. After a 60-minute incubation at room temperature, 5 μl of 200 nM EDA-GTP-DY647P1 (diluted in assay buffer) was added to the plate. Following 30-minute incubation at room temperature, time-resolved fluorescence was measured on a PerkinElmer Envision plate reader. DMSO (0.3%) and unlabeled GDP (1 μM) or equivalent tool compound were used to generate the Max and Min assay signals, respectively. Data was analysed using a four-parameter logistic model to calculate IC50 values, with at least two independent replicates were performed for each compound. The results are presented as IC50s in Table 29 where “A” corresponds to an IC50 ≤10 nM, “B” to an IC50 >10 nM up to 100 nM, “C” is >100 nM up to 10 μM, “D” represents <49% inhibition at 10 μM and ND=not determined: […]

[1] = Metabolic stability in human liver hepatocytes (substrate depletion, intrinsic clearance); assay type: in vitro ADME; conditions: 37° C., Williams E Media, LC-MS/MS depletion
From the text: Determining the in vitro metabolic stability of a new chemical entity (NCE) is a very useful tool within drug discovery. A metabolic stability study will determine the in vitro intrinsic clearance (CLint) of a compound. The CLint value represents a measure of enzyme activity toward an NCE and is independent of other physiological factors such as blood flow. Determination of CLint within drug discovery helps to identify metabolic liabilities within a compound series, and ultimately assist in the identification of compounds with improved metabolic stability. The CLint value determined in vitro can be used to predict in vivo clearance (using species specific scaling factors) in pre-clinical species and ultimately in human. The liver is the primary organ involved in drug metabolism, of which there are two pathways-Phase I and Phase II. Phase I metabolism is primarily oxidative with the majority of these oxidations catalysed by cytochrome P450 enzymes (CYPs) which are located in the smooth endoplasmic reticulum (ER) in the liver. Phase II metabolism is catalysed by various conjugative enzymes which are located mainly in the ER and the cytosol. The in vitro systems used to study drug metabolism are mainly subcellular fractions such as liver microsomes or whole cells (hepatocytes) isolated from the liver. Hepatocytes, being whole cells, contain both Phase I and Phase II metabolizing enzymes and produce their own cofactors. This assay determines the metabolic stability of test compounds in human liver hepatocytes using the substrate depletion approach. The lower limit of the assay is a T1/2 >462 min and a CLint […]. Therefore the upper limit of the assay is 277 μL/min/106 cells. Any CLint value higher than this should be given an out of range value. Hepatocytes were plated in Williams E Media with added L-glutamine, compounds were added as 1 mM DMSO solution and incubated at 37° C. Compound depletion was measured by LC-MS/MS at multiple time points following quenching with cold acetonitrile. CLint was calculated from the following equation:
CLint(μl/min/106cells)=(In(2)/T1/2)*1000/cell density(10^6cells/mL)

T1 sequence (P01116 1-188 isoform P01116-2): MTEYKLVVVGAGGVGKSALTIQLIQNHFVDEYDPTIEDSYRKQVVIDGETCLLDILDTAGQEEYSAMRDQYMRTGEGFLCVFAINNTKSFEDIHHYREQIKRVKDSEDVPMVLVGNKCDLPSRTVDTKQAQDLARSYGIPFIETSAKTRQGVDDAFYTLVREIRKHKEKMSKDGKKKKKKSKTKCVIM

SMILES	IC50 (KRAS WT) [µM]	IC50 (KRAS G12S) [µM]	IC50 (KRAS G12D) [µM]	IC50 (KRAS G12A) [µM]	IC50 (KRAS G12V) [µM]	hepatocyte CLint [1] [µL/min/1e6 cells]
CCc1c(F)ccc2cc(O)cc(-c3cc4nc(OC[C@@]56CCCN5C[C@H](F)C6)nc(N5CCCCCC5)c4c4cn(C)nc34)c12 [Example 9, 4-[9-(azepan-1-yl)-2-methyl-7-[[(2R,8S)-2-fluoro-1,2,3,5,6,7-hexahydropyrrolizin-8-yl]methoxy]pyrazolo[4,3-f]quinazolin-4-yl]-5-ethyl-6-fluoro-naphthalen-2-ol]	0.1 to 10		0.1 to 10			42.5
CCc1c(F)ccc2cc(O)cc(-c3cc4nc(OC[C@@]56CCCN5C[C@H](F)C6)nc(N5CC6CCC5CN6)c4c4cn(C)nc34)c12 (stereo partly drawn) [Example 14, 4-[9-(2,5-diazabicyclo[2.2.2]octan-2-yl)-2-methyl-7-[[(2R,8S)-2-fluoro-1,2,3,5,6,7-hexahydropyrrolizin-8-yl]methoxy]pyrazolo[4,3-f]quinazolin-4-yl]-5-ethyl-6-fluoro-naphthalen-2-ol]	0.1 to 10		≤ 0.01		0.01 to 0.1	
C#Cc1c(F)ccc2cc(O)cc(-c3ncc4c(N5CCCCCC5)nc(OC[C@@]56CCCN5C[C@H](F)C6)nc4c3F)c12 [WO2022248885 Example 84, reference compound]						95.6
C#Cc1c(F)ccc2cc(O)cc(-c3ccc4c(N5CCCOCC5)nc(OC[C@@]56CCCN5C[C@H](F)C6)nc4c3F)c12 [WO2022258974 Example 26, reference compound]						94.6

Second part, the compound after the results:

IC50 (KRAS WT) [µM]	IC50 (KRAS G12S) [µM]	IC50 (KRAS G12D) [µM]	IC50 (KRAS G12A) [µM]	IC50 (KRAS G12V) [µM]	hepatocyte CLint [1] [µL/min/1e6 cells]	SMILES
≤ 0.01	0.01 to 0.1	≤ 0.01	≤ 0.01	≤ 0.01		CCc1c(F)ccc2cc(O)cc(-c3c(C)c4nc(OC[C@@]56CCCN5C[C@H](F)C6)nc(N5CCOCC(C)(O)C5)c4c4cn(C)nc34)c12 (mixture of isomers) [Example 105, 4-[4-(8-ethyl-7-fluoro-3-hydroxy-1-naphthyl)-2,5-dimethyl-7-[rac-(2R)-2-fluoro-1,2,3,5,6,7-hexahydropyrrolizin-8-yl]methoxy]pyrazolo[4,3-f]quinazolin-9-yl]-6-methyl-1,4-oxazepan-6-ol]
≤ 0.01		≤ 0.01		≤ 0.01		CCc1c(F)ccc2cc(O)cc(-c3cc4nc(OC[C@@]56CCCN5C[C@H](F)C6)nc(N5CCCC(C)(O)C5)c4c4cn(C)nc34)c12 (mixture of isomers) [Example 7, 1-[4-(8-ethyl-7-fluoro-3-hydroxy-1-naphthyl)-2-methyl-7-[[rac-(2R,8S)-2-fluoro-1,2,3,5,6,7-hexahydropyrrolizin-8-yl]methoxy]pyrazolo[4,3-f]quinazolin-9-yl]-3-methyl-piperidin-3-ol]
≤ 0.01	0.01 to 0.1	≤ 0.01	≤ 0.01	0.01 to 0.1	73.3	CCc1c(F)ccc2cc(O)cc(-c3cc4nc(OC[C@@]56CCCN5C[C@H](F)C6)nc(N5CCCOCC5)c4c4cn(C)nc34)c12 [Example 1, 5-ethyl-6-fluoro-4-[2-methyl-9-(1,4-oxazepan-4-yl)-7-[[(2R,8S)-2-fluoro-1,2,3,5,6,7-hexahydropyrrolizin-8-yl]methoxy]pyrazolo[4,3-f]quinazolin-4-yl]naphthalen-2-ol]
≤ 0.01		≤ 0.01			54.2	C#Cc1c(F)ccc2cc(O)cc(-c3cc4nc(OC[C@@]56CCCN5C[C@H](F)C6)nc(N5CCCOCC5)c4c4cn(C)nc34)c12 [Example 2, 5-ethynyl-6-fluoro-4-[2-methyl-9-(1,4-oxazepan-4-yl)-7-[[(2R,8S)-2-fluoro-1,2,3,5,6,7-hexahydropyrrolizin-8-yl]methoxy]pyrazolo[4,3-f]quinazolin-4-yl]naphthalen-2-ol]
0.01 to 0.1		0.01 to 0.1			47.8	C#Cc1c(F)ccc2cc(O)cc(-c3cc4nc(OC[C@@]56CCCN5C[C@H](F)C6)nc(N5CCCCCC5)c4c4cn(C)nc34)c12 [Example 12, 4-[9-(azepan-1-yl)-2-methyl-7-[[(2R,8S)-2-fluoro-1,2,3,5,6,7-hexahydropyrrolizin-8-yl]methoxy]pyrazolo[4,3-f]quinazolin-4-yl]-5-ethynyl-6-fluoro-naphthalen-2-ol]
